Laboratory results as given in ChEMBL document CHEMBL6182947, “Discovery of Phloroglucinol Derivatives as a New Type of Nonnucleoside Inhibitors with Anti-herpes Simplex Virus Type 1 Activity” (J Med Chem, 2025).
Active and inactive are the calls of the source. The calls are words filed in the database; no cut-off is given here.

Tests used:
[1] = Selectivity index, ratio of CC50 for Cytotoxicity against african green monkey Vero cells to IC50 for Antiviral activity against HSV1 infected in African green monkey Vero cells; assay type: toxicity, cell-based; conditions: read-out: Selectivity Index
[2] = Cytotoxicity against African green monkey Vero cells assessed as cell viability measured after 24 hrs incubation by MTT assay; assay type: toxicity, cell-based; conditions: chlorocebus sabaeus
Human alphaherpesvirus 1 [3] = experiment: In vivo antiviral activity against HSV1 infected in BALB/c mouse right ear by scratch assessed as reduction in viral titer in ear tissue homogenate at 10 to 20 mg/kg, applied topically measured for 5 to 9 days post-infection; assay type: functional, organism-based; conditions: dose 10-20 mg/kg, time 5-9 day
[4] = Toxicity in BALB/c mouse assessed as toxic side effects at 10 to 20 mg/kg, applied topically measured for 5 to 9 days post-infection; assay type: organism-based; conditions: in vivo, topical_or_ocular, dose lower 10 mg/kg, time lower 5 day, dose upper 20 mg/kg, time upper 9 day
Vero [5] = experiment: Suppression of phosphorylation of RNA polymerase at serine 2 C-terminal domain in HSV1 infected African green monkey Vero cells at 0.25 to 2 uM measured after 12 hrs incubation by Western blot analysis; assay type: cell-based; conditions: Human alphaherpesvirus 1, dose 0.25-2 µM
Human alphaherpesvirus 1 [6] = experiment: In vivo antiviral activity against HSV1 infected in BALB/c mouse right ear by scratch assessed as reduction in ear thickness at 10 to 20 mg/kg, applied topically measured for 5 to 9 days post-infection; assay type: functional, organism-based; conditions: dose 10-20 mg/kg, time 5-9 day
Human alphaherpesvirus 1 [7] = experiment: Antiviral activity against HSV1 infected in African green monkey Vero cells assessed as reduction of virus yield at 2 uM treated for 0 to 14 hrs of post-infection; assay type: functional, organism-based; conditions: time 0-14 hrs
Human alphaherpesvirus 2 = experiment: Antiviral activity against HSV2 infected in African green monkey Vero cells assessed as reduction of virus-induced cytopathic effect measured after 48 hrs of incubation; assay type: functional, organism-based; conditions: Human alphaherpesvirus 2, Vero
Human alphaherpesvirus 1 [8] = experiment: In vivo antiviral activity against HSV1 infected in BALB/c mouse right ear by scratch assessed as reduction in gD glycoprotein level at 10 to 20 mg/kg, applied topically measured for 5 to 9 days post-infection; assay type: functional, organism-based; conditions: dose 10-20 mg/kg, time 5-9 day
Human alphaherpesvirus 1 [9] = experiment: In vivo antiviral activity against HSV1 infected in BALB/c mouse right ear by scratch assessed as increase in body weight at 10 to 20 mg/kg, applied topically measured for 5 to 9 days post-infection relative to control; assay type: functional, organism-based; conditions: dose 10-20 mg/kg, time 5-9 day
Human alphaherpesvirus 1 [10] = experiment: Antiviral activity against HSV1 infected in African green monkey Vero cells assessed as reduction of virus-induced cytopathic effect measured after 48 hrs of incubation; assay type: functional, organism-based; conditions: Human alphaherpesvirus 1, Vero
Human alphaherpesvirus 1 [11] = experiment: Antiviral activity against ACV-resistant HSV1 153 infected in African green monkey Vero cells assessed as reduction of virus-induced cytopathic effect measured after 48 hrs of incubation; assay type: functional, organism-based; conditions: Human alphaherpesvirus 1, 153, Vero
Vero [12] = experiment: Suppression of phosphorylation of RNA polymerase at serine 5 C-terminal domain in HSV1 infected African green monkey Vero cells measured after 12 hrs incubation by Western blot analysis; assay type: cell-based; conditions: Human alphaherpesvirus 1, dose 0.25-2 µM
Human alphaherpesvirus 1 [13] = experiment: Antiviral activity against HSV1 expressing GFP infected in African green monkey Vero cells assessed as reduction in green fluorescence protein expression at 1 uM measured after 24 hrs post-infection by immunofluorescence based fluorescence microscopy; assay type: functional, organism-based
Human alphaherpesvirus 1 [14] = experiment: In vivo antiviral activity against HSV1 infected in BALB/c mouse right ear by scratch assessed as reduction in skin lesions at 10 to 20 mg/kg, applied topically measured for 5 to 9 days post-infection; assay type: functional, organism-based; conditions: dose 10-20 mg/kg, time 5-9 day
Human alphaherpesvirus 1 [15] = experiment: Antiviral activity against ACV-resistant HSV1 Blue infected in African green monkey Vero cells assessed as reduction of virus-induced cytopathic effect measured after 48 hrs of incubation; assay type: functional, organism-based; conditions: Human alphaherpesvirus 1, Blue
Human alphaherpesvirus 1 [16] = experiment: Antiviral activity against HSV1 expressing GFP infected in African green monkey Vero cells assessed as fold reduction in viral titer green fluorescence protein expression measured after 48 hrs post-infection by immunofluorescence based fluorescence microscopy; assay type: functional
Human alphaherpesvirus 1 [17] = experiment: Antiviral activity against HSV1 expressing GFP infected in African green monkey Vero cells assessed as fold reduction in viral titer green fluorescence protein expression at 2 uM measured after 48 hrs post-infection by immunofluorescence based fluorescence microscopy; assay type: functional
Human alphaherpesvirus 1 [18] = experiment: Antiviral activity against HSV1 infected in African green monkey Vero cells assessed as inhibition of transcription by measuring viral gene level at 0.25 to 2 uM by RT-PCR analysis relative to control; assay type: functional, organism-based; conditions: dose 0.25-2 µM
Vero [19] = experiment: Inhibition of CDK7/Cyclin T1 in African green monkey Vero cells infected with HSV1 assessed as catalytic hydrolysis of ATP measured after 12 hrs by Western blot analysis; assay type: cell-based; conditions: Chlorocebus aethiops
Human alphaherpesvirus 1 [20] = experiment: Antiviral activity against HSV1 expressing GFP infected in African green monkey Vero cells assessed as suppression of infection at 50 times of IC50 concentration measured after 48 hrs post-infection; assay type: functional, organism-based
Human alphaherpesvirus 1 [21] = experiment: Antiviral activity against HSV1 infected in African green monkey Vero cells assessed as inhibition of virus replication at 2 uM treated 8 hrs of post-infection; assay type: functional, organism-based
Vero [22] = experiment: Inhibition of CDK9/Cyclin T1 in African green monkey Vero cells infected with HSV1 assessed as catalytic hydrolysis of ATP measured after 12 hrs by Western blot analysis; assay type: cell-based; conditions: Chlorocebus aethiops

Structure (SMILES)	selectivity ratio [1]	CC50 at 24 h [2] [nM]	IC50 (Human alphaherpesvirus 1 [10]) [nM]	IC50 (Human alphaherpesvirus 1 [11]) [nM]	IC50 (Human alphaherpesvirus 1 [15]) [nM]	also measured
CC(C)CC(=O)c1c(O)cc2c(c1O)C(CC(C)C)C1=C(O2)C(C)(C)C(=O)C(C)(C)C1=O (racemic)	17.9	7000	390	300	300	Activity (Human alphaherpesvirus 1 [3]): Active; Activity [4]: Non-toxic; Activity (Vero [5]): Active; Compound Showed Only Slight Inhibition; Activity (Human alphaherpesvirus 1 [6]): Active; Activity (Human alphaherpesvirus 1 [7]): Active; IC50 (Human alphaherpesvirus 2): 350 nM; Activity (Human alphaherpesvirus 1 [8]): Active; Activity (Human alphaherpesvirus 1 [9]): Active; Activity (Vero [12]): Dose-dependent-effect; Activity (Human alphaherpesvirus 1 [13]): Active; Activity (Human alphaherpesvirus 1 [14]): Active; fold change (FC) (Human alphaherpesvirus 1 [16]): 3943; Activity (Human alphaherpesvirus 1 [17]): Active; Activity (Human alphaherpesvirus 1 [18]): Active; Activity (Vero [19]): inactive
CC(C)CC1C2=C(Oc3cc(O)c(C(=O)C4CCC4)c(O)c31)C(C)(C)C(=O)C(C)(C)C2=O (centres undefined)	26	13000	500	300	250	Activity (Human alphaherpesvirus 1 [7]): Active; Activity (Human alphaherpesvirus 1 [16]): Dose-dependent-effect; fold change (FC) (Human alphaherpesvirus 1 [17]): 1867
CC(C)CC(=O)c1c(O)c(Cl)c2c(c1O)C(CC(C)C)C1=C(O2)C(C)(C)C(=O)C(C)(C)C1=O (centres undefined)	35	14000	400	400	300	Activity (Human alphaherpesvirus 1 [16]): Dose-dependent-effect; fold change (FC) (Human alphaherpesvirus 1 [17]): 3549
CC(C)CC1C2=C(Oc3cc(O)c(C(=O)C4CCCC4)c(O)c31)C(C)(C)C(=O)C(C)(C)C2=O (centres undefined)	15.5	9000	580	300	300	–
Nc1nc2c(ncn2COCCO)c(=O)[nH]1 [ACYCLOVIR]	> 80	> 100000	1200	> 100000	> 100000	Activity (Human alphaherpesvirus 1 [20]): inactive; Activity (Human alphaherpesvirus 1 [21]): Active
CC(C)CC1C2=C(Oc3cc(O)c(C(=O)CCc4ccccc4)c(O)c31)C(C)(C)C(=O)C(C)(C)C2=O (centres undefined)	15.6	7000	450	400	200	–
CC(C)(C)c1cnc(CSc2cnc(NC(=O)C3CCNCC3)s2)o1	–	–	–	–	–	Activity (Vero [5]): Active; Activity (Vero [22]): Active; Activity (Vero [19]): Active
CCCCC1C2=C(Oc3cc(O)c(C(=O)CC(C)C)c(O)c31)C(C)(C)C(=O)C(C)(C)C2=O (centres undefined)	10	10000	1000	400	600	–
CCCCC(=O)c1c(O)cc2c(c1O)C(CC(C)C)C1=C(O2)C(C)(C)C(=O)C(C)(C)C1=O (centres undefined)	20	8000	500	1200	1200	–
CC(C)CC(=O)c1c(O)cc2c(c1O)[C@@H](CC(C)C)C1=C(O2)C(C)(C)[C@@H](O)C(C)(C)C1=O	< 6.67	10000	3750	–	–	Activity (Human alphaherpesvirus 1 [7]): Active
CC(C)CC(=O)c1c(O)cc2c(c1O)C(c1ccccc1)C1=C(O2)C(C)(C)C(=O)C(C)(C)C1=O (centres undefined)	24.4	11000	450	300	400	–
CCC1C2=C(Oc3cc(O)c(C(=O)CC(C)C)c(O)c31)C(C)(C)C(=O)C(C)(C)C2=O (centres undefined)	7.5	6000	800	500	600	–
CC(C)CC1C2=C(Oc3cc(O)c(C(=O)C(C)C)c(O)c31)C(C)(C)C(=O)C(C)(C)C2=O (centres undefined)	17.8	7000	630	400	300	–
CC(C)CC1C2=C(Oc3cc(O)c(C(=O)Cc4ccccc4)c(O)c31)C(C)(C)C(=O)C(C)(C)C2=O (centres undefined)	21.2	8500	400	500	300	–
CC(C)CC(=O)c1c(O)c(Br)c2c(c1O)C(CC(C)C)C1=C(O2)C(C)(C)C(=O)C(C)(C)C1=O (centres undefined)	11.7	7000	600	700	600	–
CC(=O)Oc1cc2c(c(OC(C)=O)c1C(=O)CC(C)C)C(CC(C)C)C1=C(O2)C(C)(C)C(=O)C(C)(C)C1=O (centres undefined)	14	7000	500	400	300	–
CC(C)CC(=O)c1c(O)cc2c(c1O)C(C1CCCCC1)C1=C(O2)C(C)(C)C(=O)C(C)(C)C1=O (centres undefined)	12.5	10000	800	500	500	–
CCCC1C2=C(Oc3cc(O)c(C(=O)CC(C)C)c(O)c31)C(C)(C)C(=O)C(C)(C)C2=O (centres undefined)	18	9000	500	500	300	–
